Data from PMC8406200, “SAMase of Bacteriophage T3 Inactivates Escherichia coli’s Methionine S-Adenosyltransferase by Forming Heteropolymers” (mBio, 2021).

T1: U. urealyticum MAT (UuMAT) (Ureaplasma urealyticum, UniProt A0ABM9XK24)
T1 construct: gene metK
T1 sequence (A0ABM9XK24 1-376): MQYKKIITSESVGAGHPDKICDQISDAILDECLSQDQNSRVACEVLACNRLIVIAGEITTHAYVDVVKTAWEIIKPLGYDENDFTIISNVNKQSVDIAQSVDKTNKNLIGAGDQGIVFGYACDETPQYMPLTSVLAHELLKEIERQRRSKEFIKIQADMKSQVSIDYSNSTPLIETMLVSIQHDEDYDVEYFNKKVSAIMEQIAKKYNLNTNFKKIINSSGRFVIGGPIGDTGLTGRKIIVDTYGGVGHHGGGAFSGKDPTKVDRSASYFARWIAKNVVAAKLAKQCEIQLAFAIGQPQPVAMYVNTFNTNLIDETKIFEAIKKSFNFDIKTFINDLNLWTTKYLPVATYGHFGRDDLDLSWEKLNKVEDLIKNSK

T2: N. gonorrhea MAT (NgMAT) (Neisseria gonorrhoeae, UniProt Q5FAC0)
T2 construct: gene metK
T2 sequence (Q5FAC0 1-389): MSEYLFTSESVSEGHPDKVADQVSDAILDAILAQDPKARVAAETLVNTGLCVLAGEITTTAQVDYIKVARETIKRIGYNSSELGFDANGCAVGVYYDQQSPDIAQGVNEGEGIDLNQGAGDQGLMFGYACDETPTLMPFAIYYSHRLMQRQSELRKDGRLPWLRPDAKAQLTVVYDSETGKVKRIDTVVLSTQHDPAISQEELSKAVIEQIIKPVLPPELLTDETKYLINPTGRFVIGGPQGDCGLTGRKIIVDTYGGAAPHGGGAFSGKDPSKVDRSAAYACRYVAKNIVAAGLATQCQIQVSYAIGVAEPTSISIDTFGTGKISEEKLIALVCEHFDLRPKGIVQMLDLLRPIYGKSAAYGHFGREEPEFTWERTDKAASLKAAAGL

T3: E. coli MAT (EcMAT) (Escherichia coli, UniProt P0A817)
T3 construct: gene metK; C-terminal His6 tag, full length, pET24a, BL21(DE3); homotetramer (dimer of dimers), ~43 kDa subunit
T3 sequence (P0A817 2-384): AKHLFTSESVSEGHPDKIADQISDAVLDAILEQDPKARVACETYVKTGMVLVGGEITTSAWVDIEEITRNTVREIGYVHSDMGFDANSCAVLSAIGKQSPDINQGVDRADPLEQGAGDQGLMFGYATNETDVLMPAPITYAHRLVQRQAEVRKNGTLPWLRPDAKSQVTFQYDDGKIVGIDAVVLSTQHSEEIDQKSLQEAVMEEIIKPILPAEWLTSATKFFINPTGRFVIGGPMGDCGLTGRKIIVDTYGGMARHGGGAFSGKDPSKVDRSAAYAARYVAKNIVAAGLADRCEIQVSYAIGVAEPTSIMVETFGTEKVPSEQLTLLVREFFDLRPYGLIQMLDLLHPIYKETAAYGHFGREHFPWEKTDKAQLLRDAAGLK

B1: E. coli methionine S-adenosyltransferase (MAT), recombinant, C-terminal His6 (enzyme, E. coli MG1655, UniProt P0A817 1-384, looked up)
chain: MAKHLFTSESVSEGHPDKIADQISDAVLDAILEQDPKARVACETYVKTGMVLVGGEITTSAWVDIEEITRNTVREIGYVHSDMGFDANSCAVLSAIGKQSPDINQGVDRADPLEQGAGDQGLMFGYATNETDVLMPAPITYAHRLVQRQAEVRKNGTLPWLRPDAKSQVTFQYDDGKIVGIDAVVLSTQHSEEIDQKSLQEAVMEEIIKPILPAEWLTSATKFFINPTGRFVIGGPMGDCGLTGRKIIVDTYGGMARHGGGAFSGKDPSKVDRSAAYAARYVAKNIVAAGLADRCEIQVSYAIGVAEPTSIMVETFGTEKVPSEQLTLLVREFFDLRPYGLIQMLDLLHPIYKETAAYGHFGREHFPWEKTDKAQLLRDAAGLK
notes: Homotetramer (dimer of dimers); also called EcMAT; E. coli MAT; source: E. coli BL21(DE3) (pET24a), purified (Ni-NTA, SEC)

Assays:
[1] = target: T1, U. urealyticum MAT (UuMAT); assay: HPLC (SCX, […] nm) of SAM / MTA formation; type: biochemical; details: 80 μM ATP, 1 mM methionine, 250 nM enzyme; pH 7.5, 10 mM MgCl2, 37°C
N. gonorrhea MAT (NgMAT) = target: T2, N. gonorrhea MAT (NgMAT); assay: HPLC (SCX, […] nm) of SAM / MTA formation; type: biochemical; details: 80 μM ATP, 1 mM methionine, 250 nM enzyme; pH 7.5, 10 mM MgCl2, 37°C
E. coli MAT (EcMAT) [2] = target: T3, E. coli MAT (EcMAT); assay: HPLC (SCX, […] nm) of SAM formation; type: biochemical; details: 80 μM ATP, 1 mM methionine, 250 nM enzyme; 25 mM HEPES pH 7.5, 100 mM KCl, 10 mM MgCl2, 1 mM DTT; 37°C; no SAMase
E. coli MAT (EcMAT) [3] = target: T4, E. coli MAT (EcMAT) (Escherichia coli, UniProt P0A817, D132P/V133T/I178V/I211V/A214P, form not given); assay: HPLC (SCX, […] nm) of SAM / MTA formation; type: biochemical; details: mutant EcMAT; methionine as co-substrate; pH 7.5, 10 mM MgCl2, 37°C; W26L as printed (position doubtful, probably W216L)
T4 construct: gene metK; C-terminal His6 tag, full length, pET24a, BL21(DE3); homotetramer (dimer of dimers), ~43 kDa subunit
T4 sequence (P0A817 2-384 D132P/V133T/I178V/I211V/A214P, form open): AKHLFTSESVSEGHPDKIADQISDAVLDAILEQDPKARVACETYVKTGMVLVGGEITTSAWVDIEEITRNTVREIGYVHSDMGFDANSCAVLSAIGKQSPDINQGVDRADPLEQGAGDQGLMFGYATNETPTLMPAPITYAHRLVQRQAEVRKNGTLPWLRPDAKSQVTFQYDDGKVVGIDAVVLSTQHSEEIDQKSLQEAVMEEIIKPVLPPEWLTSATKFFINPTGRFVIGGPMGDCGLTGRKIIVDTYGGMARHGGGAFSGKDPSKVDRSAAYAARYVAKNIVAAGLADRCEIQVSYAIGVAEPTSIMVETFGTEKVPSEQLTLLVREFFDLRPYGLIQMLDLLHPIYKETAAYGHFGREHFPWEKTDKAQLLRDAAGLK

[4] = target: the molecule itself; assay: SEC; SAMase alone on Superdex 200 Increase 10/300 GL against protein standards; natively purified and refolded SAMase; 25 mM Tris pH 8.0, 150 mM KCl, 1 mM DTT
[5] = target: B1; assay: cryo-EM structure; refolded SAMase and E. coli MAT mixed 1:1 (160 μM monomer each) with 500 μM SAM, preincubated 48 h, high-molecular-weight SEC peak; single-particle, no symmetry imposed (C1); details: both partners purified
[6] = target: the molecule itself; assay: as above

Molecule | HPLC (SCX, 254 nm) of SAM / MTA formation [1] | HPLC (SCX, 254 nm) of SAM / MTA formation (N. gonorrhea MAT (NgMAT)) | HPLC (SCX, 254 nm) of SAM formation (E. coli MAT (EcMAT) [2]) | HPLC (SCX, 254 nm) of SAM / MTA formation (E. coli MAT (EcMAT) [3]) | stoichiometry N [4] | binding result [5] | stoichiometry N [6]
CSCC[C@H](N)C(=O)O [methionine] | Synthesis of SAM from ATP and methionine of MAT proteins was conducted | Synthesis of SAM from ATP and methionine of MAT proteins was conducted | Synthesis of SAM from ATP and methionine by E. coli MAT was conducted in the absence |  |  |  | 
Nc1ncnc2c1ncn2[C@@H]1O[C@H](COP(=O)(O)OP(=O)(O)OP(=O)(O)O)[C@@H](O)[C@H]1O [ATP] | Synthesis of SAM from ATP and methionine of MAT proteins was conducted | Synthesis of SAM from ATP and methionine of MAT proteins was conducted | Synthesis of SAM from ATP and methionine by E. coli MAT was conducted in the absence | mutant E. coli MAT (EcMAT mut) was measured either alone (blue trace, rate of SAM production |  |  | 
S-Adenosylmethionine lyase (SAMase) of bacteriophage T3, C-terminal His-tagged (enzyme, S-adenosylmethionine lyase (SAMase) of bacteriophage T3, UniProt P07693; gene synthesized de novo with six His codons at the 3' end; anticipated monomer size around 17 kDa; Dimer by SEC, cross-linking and cryo-EM; also called T3 SAMase; 6×His-tagged SAMase; not shown: His6, C-terminal, kept) MIFTKEPAHVFYVLVSAFRSNLCDEVNMSRHRHMVSTLRAAPGLYGSVESTDLTGCYREAISSAPTEEKTVRVRCKDKAQALNVARLACNEWEQDCVLVYKSQTHTAGLVYAKGIDGYKAERLPGSFQEVPKGAPLQGCFTIDEFGRRWQVQ |  |  |  |  | 2 | binds | 
B1 |  |  |  |  |  |  | 4
